Assay results published in patent publication US5840697A, “Peptide inhibitors of calmodulin” (Torrey Pines Institute for Molecular Studies, priority 1996, dated 1998).
Where two headings read alike, the source gives them in different places. Square brackets hold non-standard residues; d marks the D form. Peptide text beside a SMILES is read from it.

How the values were obtained:
[1] = molecular target: calmodulin (Homo sapiens, UniProt P0DP23); assay: calcium-dependent phosphodiesterase assay (calmodulin activity); type: biochemical; conditions: for SPECIFICITY: comparison of IC50 for phosphodiesterase with IC50 for calmodulin; for calmodulin inhibitory activity, in words: (L)-amino acid peptides of Table II
Method: In the calcium dependent phosphodiesterase assay, calmodulin can be assayed by its ability to stimulate phosphodiesterase activity as determined by a two-step assay procedure illustrated by reactions (1) and (2) below. [drawing 1]
During the first step of the assay cyclic adenosine 3'5'-monophosphate (cAMP) is incubated with calcium-activated phosphodiesterase (Cal-PDE), which hydrolyses the 3'bond producing adenosine 5'-monophosphate (5'-AMP). During the second step, 5'-AMP is quantitatively converted into adenosine and inorganic phosphate (Pi) through the action of a 5-nucleotidase. The reaction is followed by the measurement of the Pi formed by reading the absorbance at 660 nm after reacting with ammonium molybdate. The amount of Pi formed is directly related to the phosphodiesterase activity which depends on the level of activation by calmodulin.
To sample assay tubes were added the following components: assay buffer, 25 ul; CaCl2, 5 ul; 5'-nucleotidase, 7.5 ul (stock solution is 10 units/ml); calmodulin 5 units; calmodulin inhibitor peptides to obtain the desired final concentration of 50 μM. The volume was then made up to 200 ul with water. Control blanks were prepared replacing the peptides with water. The added components were thoroughly mixed and the tubes incubated at 30° C. for 10 min. […] The samples were centrifuged to remove the protein precipitate and the 50 ul of the supernatant was withdrawn for phosphate measurement. […] The absorbance of the solution were read at 660 nm using water as a blank, identified as control "Calmo."
The two controls used in the assay, one without and one with calmodulin, as indicated in FIG. 1 and Table I were as follows,: (1) PDE:
These three controls were used in the calcium-dependent phosphodiesterase assay for reproducibility of the assay.
In addition to the calcium-dependent phosphodiesterase assay data, IC50 values were determined for many of the peptides. The assay carried out for the determination in the IC50 values differed from the above screening assay by the concentration of the peptides being tested.
(3) TFP: trifluoperazine; and (4) Calmidasolium: (1-[bis-(4-chlorophenyl)methyl]-3[-2-(2,4-dichlorophenyl)-2[(2,4-dichlorophenyl)methoxy]-ethyl]-1H-imidazolium chloride. The IC50 values were calculated using sigmoidal curve software (Graphpad, ISI; San Diego, Calif.) using the % inhibition at different mixture concentrations (see protocol for determination of % inhibition).
The (L)-amino acid counterpart for five (5) of the all (D)-amino acid peptides identified from the PS-SCL were synthesized in order to study the stereoselectivity of the inhibition.

[2] = molecular target: phosphodiesterase; assay: calcium-dependent phosphodiesterase assay in the absence of calmodulin; type: biochemical; conditions: Table III
Method: To sample assay tubes were added the following components: assay buffer, 25 ul; CaCl2, 5 ul; 5'-nucleotidase, 7.5 ul (stock solution is 10 units/ml); calmodulin 5 units; calmodulin inhibitor peptides to obtain the desired final concentration of 50 μM. The volume was then made up to 200 ul with water. Control blanks were prepared replacing the peptides with water. The added components were thoroughly mixed and the tubes incubated at 30° C. for 10 min. Then, 25 ul of cAMP at 10.8 mM was added and incubated for 90 min at 30° C. The reaction was stopped by the addition of 50 ul of 55% trichloroacetic acid (TCA). The samples were centrifuged to remove the protein precipitate and the 50 ul of the supernatant was withdrawn for phosphate measurement. To the supernatant aliquot, 50 ul ammonium molybdate (0.55% in 1.1 N sulfuric acid) was added, followed by the addition of 5 ul of reducing agent (24 g sodium bisulfite, 2.4 g sodium sulfite, 0.5 g of 1-amino-2-naphthol-4-sulfonic acid in 200 ml of water), and the contents were mixed by vortexing. The absorbance of the solution were read at 660 nm using water as a blank, identified as control "Calmo."
As described above, one of the undesirable biological effects of existing calmodulin inhibitors is their non-specific binding to other proteins and the like. Therefore, the specificity of the instant inhibitory peptides for calmodulin was examined. The specificity was determined using the calcium-dependent phosphodiesterase assay described in Example I. The assay was carried out for the determination of IC50 values in the presence of calmodulin (IC50 value for calmodulin) and in the absence of calmodulin (IC50 for phosphodiesterase), the latter of which provides the effect of the inhibitory peptides on the phosphodiesterase.

[3] = system: NRK cells; assay: long term stability: number of NRK cells at 48 hr after activation; type: cell-based, rat; conditions: added at 5 hr, counted 48 hr after activation
From the text: The similar activity found for the (L)-amino acid peptides and (D)-amino acid peptides indicate that the inhibition of calmodulin occurs rapidly following the addition of the inhibitory peptides. The peptides' long term stability was then studied by adding Ac-(D)Leu-(D)Trp-(D)Arg-(D)Ile-(D)Leu-(D)Trp-NH2, Ac-Leu-Trp-Arg-Ile-Leu-Trp-NH2 (SEQ ID No. 48), W13 and W12 at 5 hr following the reentry of the NRK cells into the cell cycle and measuring the number of cells at 48 hr after activation.

[4] = Table I, assayed at 75, 50 and 12.5 μM, average of repeated assays, read-out: Average IC50
[5] = Table III, in the presence of calmodulin, read-out: IC50 (μM) for calmodulin
[6] = Table II, (L)-amino acid peptides, concentrations 0.2 to 50.0 μM, read-out: IC50

Row | IC50 [1, 4] [µM] | IC50 [1, 5] [µM] | SPECIFICITY [1] | IC50 [2] [µM] | IC50 (μM) for phosphodiesterase [2] | IC50 [1, 6] [µM] | calmodulin inhibitory activity, in words [1] | Compound | number of cells relative to control cells [3]
1 | 27 | 25 | 4.8 | 119 |  |  |  | CC[C@@H](C)[C@@H](NC(=O)[C@@H](CCC(N)=O)NC(=O)[C@@H](CC(C)C)NC(C)=O)C(=O)N[C@@H](C(=O)N[C@H](CC(C)C)C(=O)N[C@H](Cc1c[nH]c2ccccc12)C(N)=O)[C@H](C)CC [Ac-(D)Leu-(D)Gln-(D)Ile-(D)Ile-(D)Leu-(D)Trp-NH2] (Ac-[dL][dQ][dI][dI][dL][dW]-NH2) | 
2 | 1.1 |  | 100 | 112 |  |  |  | CC(=O)N[C@H](CC(C)C)C(=O)N[C@H](Cc1c[nH]c2ccccc12)C(=O)N[C@H](CCCNC(=N)N)C(=O)N[C@H](Cc1c[nH]cn1)C(=O)N[C@H](Cc1c[nH]cn1)C(=O)N[C@H](Cc1c[nH]c2ccccc12)C(N)=O [Ac-(D)Leu-(D)Trp-(D)Arg-(D)His-(D)His-(D)Trp-NH2] (Ac-[dL][dW][dR][dH][dH][dW]-NH2) | 
3 | 5.9 | 6.7 | 10 | 68 |  |  |  | CC(=O)N[C@H](CC(C)C)C(=O)N[C@H](Cc1c[nH]c2ccccc12)C(=O)N[C@H](CCCNC(=N)N)C(=O)N[C@H](Cc1c[nH]cn1)C(=O)N[C@H](CC(C)C)C(=O)N[C@H](Cc1c[nH]c2ccccc12)C(N)=O [Ac-(D)Leu-(D)Trp-(D)Arg-(D)His-(D)Leu-(D)Trp-NH2] (Ac-[dL][dW][dR][dH][dL][dW]-NH2) | 
4 | 0.96 | 1.2 | 69 | 84 |  |  |  | CC[C@@H](C)[C@@H](NC(=O)[C@@H](CCCNC(=N)N)NC(=O)[C@@H](Cc1c[nH]c2ccccc12)NC(=O)[C@@H](CC(C)C)NC(C)=O)C(=O)N[C@H](Cc1c[nH]cn1)C(=O)N[C@H](Cc1c[nH]c2ccccc12)C(N)=O [Ac-(D)Leu-(D)Trp-(D)Arg-(D)Ile-(D)His-(D)Trp-NH2] (Ac-[dL][dW][dR][dI][dH][dW]-NH2) | 
5 | 3.9 | 4.8 | > 42 | > 200 |  |  |  | CC[C@@H](C)[C@@H](NC(=O)[C@@H](CCCNC(=N)N)NC(=O)[C@@H](Cc1c[nH]c2ccccc12)NC(=O)[C@@H](CC(C)C)NC(C)=O)C(=O)N[C@H](CC(C)C)C(=O)N[C@H](CCCNC(=N)N)C(N)=O [Ac-(D)Leu-(D)Trp-(D)Arg-(D)Ile-(D)Leu-(D)Arg-NH2] (Ac-[dL][dW][dR][dI][dL][dR]-NH2) | 
6 | 8.5 | 12 | 2.4 | 30 |  |  |  | CC[C@@H](C)[C@@H](NC(=O)[C@@H](Cc1c[nH]c2ccccc12)NC(=O)[C@@H](CC(C)C)NC(C)=O)C(=O)N[C@H](Cc1c[nH]cn1)C(=O)N[C@H](Cc1c[nH]cn1)C(=O)N[C@H](Cc1c[nH]c2ccccc12)C(N)=O [Ac-(D)Leu-(D)Trp-(D)Ile-(D)His-(D)His-(D)Trp-NH2] (Ac-[dL][dW][dI][dH][dH][dW]-NH2) | 
7 | 3.6 |  | 12 | 42 |  |  |  | CC[C@@H](C)[C@@H](NC(=O)[C@@H](Cc1c[nH]c2ccccc12)NC(=O)[C@@H](CC(C)C)NC(C)=O)C(=O)N[C@H](Cc1c[nH]cn1)C(=O)N[C@H](CC(C)C)C(=O)N[C@H](Cc1c[nH]c2ccccc12)C(N)=O [Ac-(D)Leu-(D)Trp-(D)Ile-(D)His-(D)Leu-(D)Trp-NH2] (Ac-[dL][dW][dI][dH][dL][dW]-NH2) | 
8 | 36 | 29 |  |  | activation |  |  | CC[C@@H](C)[C@@H](NC(=O)[C@@H](Cc1c[nH]c2ccccc12)NC(=O)[C@@H](CC(C)C)NC(C)=O)C(=O)N[C@@H](C(=O)N[C@H](CC(C)C)C(=O)N[C@H](Cc1c[nH]c2ccccc12)C(N)=O)[C@H](C)CC [Ac-(D)Leu-(D)Trp-(D)Ile-(D)Ile-(D)Leu-(D)Trp-NH2] (Ac-[dL][dW][dI][dI][dL][dW]-NH2) | 
9 |  |  |  |  |  | 87 |  | CC[C@H](C)[C@H](NC(=O)[C@H](CCC(N)=O)NC(=O)[C@H](CC(C)C)NC(C)=O)C(=O)N[C@@H](Cc1c[nH]cn1)C(=O)N[C@@H](CC(C)C)C(=O)N[C@@H](CCCNC(=N)N)C(N)=O [Ac-Leu-Gln-Ile-His-Leu-Arg-NH2] (Ac-LQIHLR-NH2) | 
10 |  |  |  |  |  | 1.16 | especially high activity | CC(=O)N[C@@H](CC(C)C)C(=O)N[C@@H](Cc1c[nH]c2ccccc12)C(=O)N[C@@H](CCCNC(=N)N)C(=O)N[C@@H](Cc1c[nH]cn1)C(=O)N[C@@H](Cc1c[nH]cn1)C(=O)N[C@@H](Cc1c[nH]c2ccccc12)C(N)=O [Ac-Leu-Trp-Arg-His-His-Trp-NH2] (Ac-LWRHHW-NH2) | 
11 |  | 1.1 | > 182 | > 200 |  | 1.15 | especially high activity | CC(=O)N[C@@H](CC(C)C)C(=O)N[C@@H](Cc1c[nH]c2ccccc12)C(=O)N[C@@H](CCCNC(=N)N)C(=O)N[C@@H](Cc1c[nH]cn1)C(=O)N[C@@H](CC(C)C)C(=O)N[C@@H](Cc1c[nH]c2ccccc12)C(N)=O [Ac-Leu-Trp-Arg-His-Leu-Trp-NH2] (Ac-LWRHLW-NH2) | 
12 |  |  | > 69 | > 200 |  | 2.89 | especially high activity | CC[C@H](C)[C@H](NC(=O)[C@H](CCCNC(=N)N)NC(=O)[C@H](Cc1c[nH]c2ccccc12)NC(=O)[C@H](CC(C)C)NC(C)=O)C(=O)N[C@@H](CC(C)C)C(=O)N[C@@H](CCCNC(=N)N)C(N)=O [Ac-Leu-Trp-Arg-Ile-Leu-Arg-NH2] (Ac-LWRILR-NH2) | 
13 |  |  | > 227 | > 200 |  | 0.88 | especially high activity | CC[C@H](C)[C@H](NC(=O)[C@H](CCCNC(=N)N)NC(=O)[C@H](Cc1c[nH]c2ccccc12)NC(=O)[C@H](CC(C)C)NC(C)=O)C(=O)N[C@@H](CC(C)C)C(=O)N[C@@H](Cc1c[nH]c2ccccc12)C(N)=O [Ac-Leu-Trp-Arg-Ile-Leu-Trp-NH2] (Ac-LWRILW-NH2) | the same number of cells

Row | Compound | IC50 [1, 4] [µM] | IC50 [1, 5] [µM] | SPECIFICITY [1] | IC50 [2] [µM] | IC50 (μM) for phosphodiesterase [2] | IC50 [1, 6] [µM] | calmodulin inhibitory activity, in words [1] | number of cells relative to control cells [3]
14 | Clc1ccc(C(c2ccc(Cl)cc2)n2cc[n+](CC(OCc3ccc(Cl)cc3Cl)c3ccc(Cl)cc3Cl)c2)cc1 (centres unmarked) [Calmidazolium, (1-[bis-(4-chlorophenyl)methyl]-3[-2-(2,4-dichlorophenyl)-2[(2,4-dichlorophenyl)methoxy]-ethyl]-1H-imidazolium chloride, reference compound] | 9 |  |  |  |  |  |  | 
